The subject of experiment [1] is Plasmodium falciparum. Nature of the experiment: Antimalarial activity against chloroquine-resistant Plasmodium falciparum K1 infected in erythroctes incubated for 72 hrs by SYBR green 1 based spectrofluorometer. The experiment is classed as functional, organism-based, Erythrocyte.
Experiment [2] concerns Plasmodium falciparum. The experiment is described as follows: Antimalarial activity against chloroquine-sensitive Plasmodium falciparum 3D7 infected in erythroctes incubated for 72 hrs by SYBR green 1 based spectrofluorometer. The experiment is classed as functional, organism-based, Erythrocyte.
[3] abbreviates: Plasmodium falciparum, K1, Erythrocyte, 72 h.
Where [4] appears, read: Plasmodium falciparum, 3D7, Erythrocyte, 72 h.

This passage reports EC50 results from ChEMBL document CHEMBL5579840, “Optimization of diastereomeric dihydropyridines as antimalarials” (Eur J Med Chem, 2024).

Regarding `CCOC(=O)C1=C(C)NC2=C(C(=O)CC(c3ccc(OC)c(OC)c3)C2)C1c1ccc(Cl)cc1C` (mixture of isomers), the concentration for a half-maximal effect (EC50) worked out at 38.5 nM in experiment [1] (erythrocyte) and 55.1 nM in experiment [2] (erythrocyte).
For the molecule `CCOC(=O)C1=C(C)NC2=C(C(=O)OC(c3ccc(OC)c(OC)c3)C2)C1c1ccccc1` (mixture of isomers), the concentration giving a half-maximal response (EC50) in experiment [1] (erythrocyte) was determined as 120 nM; in experiment [2] (erythrocyte) it was 180 nM.
In the case of `CCCC1=C(C(=O)OCC)C(c2ccc(Cl)cc2C)C2=C(CC(c3cc(OC)ccc3OC)CC2=O)N1` (stereo in doubt; 48B), the EC50 in experiment [1] (erythrocyte) amounted to 46.8 nM; in experiment [2] (erythrocyte) it was 37.5 nM.
The molecule `CCOC(=O)C1=C(C)NC2=C(C(=O)OC(c3ccccc3)C2)C1c1ccccc1Cl` (stereo in doubt; 17B) gave an EC50 in experiment [2] (erythrocyte) of over 11000 nM.
Take `CCOC(=O)C1=C(C(=O)OCC)C(c2ccccc2Cl)C2=C(CC(c3ccc(OC)c(OC)c3)OC2=O)N1` (stereo in doubt; 33B): the half-maximal effective concentration (EC50) in experiment [1] (erythrocyte) was determined as 77.6 nM; in experiment [2] (erythrocyte), 119 nM.
The like results for `CCOC(=O)C1=C(C)NC2=C(C(=O)OC(c3ccccc3OC)C2)C1c1ccccc1Cl` (stereo in doubt; 24B) were, in that order, over 5500 nM and over 5500 nM.
The like results for `CCOC(=O)C1=C(c2ccccc2)NC2=C(C(=O)CC(c3ccc(OC)c(OC)c3)C2)C1c1ccccc1Cl` (mixture of isomers) were, in that order, 92.3 nM and 176 nM.
Take `CCOC(=O)C1=C(C)NC2=C(C(=O)OC(c3ccc(OC)c(OC)c3)C2)C1c1ccccc1OC` (mixture of isomers): the half-maximal effective concentration (EC50) in experiment [2] (erythrocyte) was over 5500 nM.
With `CCOC(=O)C1=C(C)NC2=C(C(=O)CC(c3ccc(Cl)c(OC)c3)C2)C1c1ccc(Cl)cc1C` (mixture of isomers), the 50% effective concentration (EC50) was 69.1 nM in experiment [1] (erythrocyte) and 78.3 nM in experiment [2] (erythrocyte).
For `CCOC(=O)C1=C(C)NC2=C(C(=O)OC(c3ccc(OC)c(OC)c3)C2)C1c1ccccc1` (stereo in doubt; 1B), in that order: 80 nM and 83 nM.
For `CCOC(=O)C1=C(C)NC2=C(C(=O)OC(c3ccc(C)cc3)C2)C1c1ccccc1Cl` (stereo in doubt; 23B), the EC50 in experiment [1] (erythrocyte) was 1580 nM; in experiment [2] (erythrocyte), over 6000 nM.
As for `CCOC(=O)C1=C(C)NC2=C(C(=O)OC(c3ccc(OC)c(OC)c3)C2)C1c1ccc(Cl)cc1` (stereo in doubt; 5), the values for the concentration for a half-maximal effect (EC50) in experiment [1] (erythrocyte) and in experiment [2] (erythrocyte) were 160 nM and 91.8 nM, respectively.
In experiment [2] (erythrocyte), `COc1ccc(C2CC(=O)C3=C(C2)NC(C)=C(C(=O)O)C3c2ccccc2Cl)cc1OC` (stereo in doubt; 27B) registered a concentration for a half-maximal effect (EC50) of over 12000 nM.
Consider `COc1ccc(C2CC3=C(C(=O)O2)C(c2ccccc2Cl)C(C(=O)OC(C)(C)C)=C(C)N3)cc1OC` (stereo in doubt; 30B), for which the response in experiment [1] (erythrocyte) was half-maximal at 272 nM (EC50).
With `CCOC(=O)C1=C(C)NC2=C(C(=O)OC(c3ccc(OC)cc3)C2)C1c1ccccc1Cl` (stereo in doubt; 26B), the EC50 in experiment [1] (erythrocyte) worked out at 1960 nM; in experiment [2] (erythrocyte) it was 2160 nM.
`CCOC(=O)C1=C(C)NC2=C(C(=O)OC(c3ccc(OC)c(OC)c3)C2)C1c1ccc(Cl)cc1C` (mixture of isomers): the concentration for a half-maximal effect (EC50) in experiment [1] (erythrocyte) came out at 46.8 nM; in experiment [2] (erythrocyte) it was 19.5 nM.
For `CCOC(=O)C1=C(C)NC2=C(C(=O)OC(c3ccc(OC)c(OC)c3)C2)C1c1ccc(Br)cc1` (stereo in doubt; 12B), in that order: 341 nM and 59 nM.
For `CCOC(=O)C1=C(C)NC2=C(C(=O)CC(c3ccc(Cl)c(OC)c3)C2)C1c1ccccc1Cl` (mixture of isomers), in that order: 51.2 nM and 47.7 nM.
Take `CCOC(=O)C1=C(C)NC2=C(C(=O)CC(c3ccc(OC)c(OC)c3)C2)C1c1ccccc1Cl` (stereo in doubt; 2B): the concentration for a half-maximal effect (EC50) in experiment [1] (erythrocyte) is 15.7 nM; in experiment [2] (erythrocyte), 13.5 nM.
For `COCC1=C(C(=O)OC)C(c2ccc(Cl)cc2)C2=C(CC(c3cc(OC)c(OC)c(OC)c3)OC2=O)N1` (stereo in doubt; 56B), in that order: 42.3 nM and 29 nM.
Take `CCOC(=O)C1=C(C)NC2=C(C(=O)OC(c3ccc(OC)c(OC)c3)C2)C1c1ccc([N+](=O)[O-])cc1` (stereo in doubt; 13B): the EC50 in experiment [1] (erythrocyte) came out at 2200 nM; in experiment [2] (erythrocyte) it was 2710 nM.
The like results for `CCOC(=O)C1=C(C)NC2=C(C(=O)OC(c3ccc(OC)c(OC)c3)C2)C1c1ccc(C)cc1` (stereo in doubt; 8B) were, in that order, 605 nM and 638 nM.
For `COCC1=C(C(=O)OC)C(c2ccc(Cl)cc2)C2=C(CC(c3cc(OC)c(OC)c(OC)c3)OC2=O)N1` (mixture of isomers), in that order: 43.6 nM and 30.8 nM.
As for `CCOC(=O)C1=C(C)NC2=C(C(=O)OC(c3ccc(OC)c(OC)c3)C2)C1c1ccccc1Cl` (mixture of isomers), the EC50 in experiment [1] (erythrocyte) worked out at 323 nM; in experiment [2] (erythrocyte), 372 nM.
For `COc1ccc(C2CC3=C(C(=O)O2)C(c2ccccc2Cl)C(C(=O)OCc2ccccc2)=C(C)N3)cc1OC` (stereo in doubt; 31B), in that order: over 9100 nM and over 9100 nM.
Take `CCOC(=O)C1=C(C)NC2=C(C(=O)OC(c3ccccc3Cl)C2)C1c1ccccc1Cl` (mixture of isomers): the EC50 in experiment [1] (erythrocyte) and in experiment [2] (erythrocyte) was over 6000 nM in each case.
As to `CCOC(=O)C1=C(C)NC2=C(C(=O)CC(c3ccc(OC)c(OC)c3)C2)C1c1ccc(Cl)cc1` (stereo in doubt; 36B), the EC50 came out at 9.3 nM in experiment [1] (erythrocyte) and 10.3 nM in experiment [2] (erythrocyte).
For `CCCC1=C(C(=O)OCC)C(c2ccc(Cl)cc2C)C2=C(CC(c3ccc(OC)c(OC)c3)OC2=O)N1` (mixture of isomers), in that order: 22 nM and 30 nM.
The like results for `CCOC(=O)C1=C(C)NC2=C(C(=O)OC(c3cccc(OC)c3)C2)C1c1ccccc1Cl` (stereo in doubt; 25B) were, in that order, 363 nM and 626 nM.
On to `COc1ccc(C2CC3=C(C(=O)O2)C(c2ccccc2Cl)C(C(=O)OC(C)(C)C)=C(C)N3)cc1OC` (mixture of isomers), for which the EC50 in experiment [1] (erythrocyte) is 2650 nM.
Take `CCOC(=O)C1=C(C)NC2=C(C(=O)OC(c3ccc(OC)c(OC)c3)C2)C1c1ccc(C)cc1` (mixture of isomers): the EC50 in experiment [1] (erythrocyte) is 1610 nM; in experiment [2] (erythrocyte), 1250 nM.
As for `COCC1=C(C(=O)OC)C(c2ccc(Cl)cc2C)C2=C(CC(c3ccc(OC)c(OC)c3)CC2=O)N1` (mixture of isomers), the half-maximal effective concentration (EC50) in experiment [1] (erythrocyte) stood at 4.6 nM; in experiment [2] (erythrocyte) it was 2.4 nM.
For `CCOC(=O)C1=C(C(=O)OCC)C(c2ccccc2Cl)C2=C(CC(c3ccc(OC)c(OC)c3)OC2=O)N1` (mixture of isomers), in that order: 22.2 nM and 58.7 nM.
For `OC(c1cc(C(F)(F)F)nc2c(C(F)(F)F)cccc12)C1CCCCN1` (stereo unspecified) [MEFLOQUINE], the EC50 in experiment [1] (setting [3]) amounted to 31 nM; in experiment [2] (setting [4]), 62 nM.
For the molecule `CCOC(=O)C1=C(C)NC2=C(C(=O)CC(c3cc(OC)c(OC)c(OC)c3)C2)C1c1ccccc1Cl` (mixture of isomers), the EC50 in experiment [1] (erythrocyte) was 4.9 nM; in experiment [2] (erythrocyte), 3.6 nM.
On to `CCOC(=O)C1=C(C)NC2=C(C(=O)OC(c3ccc(Cl)c(OC)c3)C2)C1c1ccc(Cl)cc1C` (mixture of isomers), for which the EC50 in experiment [1] (erythrocyte) turned out to be 73.2 nM; in experiment [2] (erythrocyte), 80 nM.
For `CCOC(=O)C1=C(C)NC2=C(C(=O)CC(c3ccc(OC)c(OC)c3)C2)C1c1ccc(Cl)cc1` (mixture of isomers), in that order: 18.9 nM and 16.3 nM.
For `CCOC(=O)C1=C(C)NC2=C(C(=O)OC(c3ccc(OC)c(OC)c3)C2)C1c1ccc(Cl)cc1` (stereo in doubt; 5B), in that order: 53.8 nM and 47.6 nM.
For `CCOC(=O)C1=C(C)NC2=C(C(=O)OC(c3ccc(OC)c(OC)c3)C2)C1c1ccc(Br)cc1` (mixture of isomers), the EC50 in experiment [1] (erythrocyte) is 634 nM; in experiment [2] (erythrocyte), 213 nM.
For `CCOC(=O)C1=C(C)NC2=C(C(=O)OC(c3cccc(OC)c3)C2)C1c1ccccc1Cl` (mixture of isomers), the half-maximal effective concentration (EC50) in experiment [1] (erythrocyte) was over 6000 nM; in experiment [2] (erythrocyte) it was 2420 nM.
As for `CCCOC(=O)C1=C(C)NC2=C(C(=O)OC(c3ccc(OC)c(OC)c3)C2)C1c1ccccc1Cl` (stereo in doubt; 29B), the EC50 came out at 332 nM in experiment [1] (erythrocyte) and 458 nM in experiment [2] (erythrocyte).
In the case of `CCCC1=C(C(=O)OCC)C(c2ccc(Cl)cc2C)C2=C(CC(c3ccc(OC)c(OC)c3)CC2=O)N1` (mixture of isomers), the EC50 in experiment [1] (erythrocyte) is 24.1 nM; in experiment [2] (erythrocyte) it was 13.5 nM.
The like results for `CCOC(=O)C1=C(C)NC2=C(C(=O)OC(c3ccc(Cl)cc3)C2)C1c1ccccc1Cl` (mixture of isomers) were, in that order, over 5500 nM and over 5500 nM.
For `CCCC1=C(C(=O)OCC)C(c2ccccc2Cl)C2=C(CC(c3ccc(OC)c(OC)c3)OC2=O)N1` (mixture of isomers), in that order: 15.5 nM and 29 nM.
For `CCCC1=C(C(=O)OCC)C(c2ccc(Cl)cc2C)C2=C(CC(c3cc(OC)ccc3OC)CC2=O)N1` (mixture of isomers), in that order: 44.4 nM and 55.1 nM.
`CCOC(=O)C1=C(C)NC2=C(C(=O)OC(c3ccccc3)C2)C1c1ccccc1Cl` (mixture of isomers) yielded an EC50 in experiment [2] (erythrocyte) of over 10000 nM.
Turning to `CCOC(=O)C1=C(C)NC2=C(C(=O)OC(c3ccc(Cl)cc3)C2)C1c1ccccc1Cl` (stereo in doubt; 20B), the values for the half-maximal effective concentration (EC50) in experiment [1] (erythrocyte) and in experiment [2] (erythrocyte) were 2160 nM and 2860 nM, respectively.
Consider `CCN(CC)CCCC(C)Nc1ccnc2cc(Cl)ccc12` (stereo unspecified) [CHLOROQUINE], for which the EC50 in experiment [1] (setting [3]) is 1360 nM; in experiment [2] (setting [4]), 48 nM.
As to `CCCC1=C(C(=O)OCC)C(c2ccccc2Cl)C2=C(CC(c3ccc(OC)c(OC)c3)CC2=O)N1` (mixture of isomers), the EC50 in experiment [1] (erythrocyte) amounted to 3.8 nM; in experiment [2] (erythrocyte), 2.3 nM.
For `CCOC(=O)C1=C(C)NC2=C(C(=O)OC(c3cccc(C)c3)C2)C1c1ccccc1Cl` (stereo in doubt; 22B), in that order: over 6000 nM and over 6000 nM.
For `COc1ccc(C2CC3=C(C(=O)O2)C(c2ccccc2Cl)C(C(=O)OCc2ccccc2)=C(C)N3)cc1OC` (mixture of isomers), in that order: over 7500 nM and over 7500 nM.

As a reminder, the EC50 is the concentration needed to bring the measured effect to its halfway point.
